Assay: Elution test of compound represented by structural formula (2) from poly (MPC-co-BMA)
Assay type: physicochemical
Conditions: thin plate of stainless steel coated sequentially with compositions of Examples 1 to 3, immersed in distilled water
Method: Test 2: Elution Test of Compound Represented by Structural Formula (2)
The elution test of the compound represented by the structural formula (2) from poly (MPC-co-BMA) was conducted. The test sample was prepared by coating sequentially the compositions from Examples 1 to 3 to a thin plate of stainless steel. The prepared sample was immersed in distilled water, and then the amount of the eluted compound represented by the structural formula (2) was measured with time.
It can be verified that the compound represented by the structural formula (2) is eluted for about 100 hours. In addition, even after 100 hours, the compound represented by the structural formula (2) is eluted gradually for 400 hours, and thus it can be verified that controlled release is intended.

CCOc1cccc(C(CC)n2nc(C(=O)O)c3c2-c2ccc(OCc4cncnc4)cc2CC3)c1 (centres unmarked) [structural formula (2)]
time for which the compound is eluted (cumulative eluted amount, FIG. 3): about 100 hours
time for which the compound is eluted gradually, even after 100 hours (controlled release): 400 h

Source: patent US20100040666A1, “Method for Control of Drug Elution Rate and Composition for Coating of Drug-Eluting Stent” (priority 2005, published 2010)
